Reference: paper PMC6312923 (Life Science Alliance, 2018)

B1: Cdt2^PIP-3A: Cdt2 with I709, Y712, and F713 all mutated to alanine (protein, UniProt Q9NZJ0 1-730, looked up, variant I709A Y712A F713A)
Denticleless protein homolog: MLFNSVLRQPQLGVLRNGWSSQYPLQSLLTGYQCSGNDEHTSYGETGVPVPPFGCTFSSAPNMEHVLAVANEEGFVRLYNTESQSFRKKCFKEWMAHWNAVFDLAWVPGELKLVTAAGDQTAKFWDVKAGELIGTCKGHQCSLKSVAFSKFEKAVFCTGGRDGNIMVWDTRCNKKDGFYRQVNQISGAHNTSDKQTPSKPKKKQNSKGLAPSVDFQQSVTVVLFQDENTLVSAGAVDGIIKVWDLRKNYTAYRQEPIASKSFLYPGSSTRKLGYSSLILDSTGSTLFANCTDDNIYMFNMTGLKTSPVAIFNGHQNSTFYVKSSLSPDDQFLVSGSSDEAAYIWKVSTPWQPPTVLLGHSQEVTSVCWCPSDFTKIATCSDDNTLKIWRLNRGLEEKPGGDKLSTVGWASQKKKESRPGLVTVTSSQSTPAKAPRAKCNPSNSSPSSAACAPSCAGDLPLPSNTPTFSIKTSPAKARSPINRRGSVSSVSPKPPSSFKMSIRNWVTRTPSSSPPITPPASETKIMSPRKALIPVSQKSSQAEACSESRNRVKRRLDSSCLESVKQKCVKSCNCVTELDGQVENLHLDLCCLAGNQEDLSKDSLGPTKSSKIEGAGTSISEPPSPISPYASESCGTLPLPLRPCGEGSEMVGKENSSPENKNWLLAMAAKRKAENPSPRSPSSQTPNSRRQSGKKLPSPVTITPSSMRKACTAAHRKSQEDFCGPEHSTEL
modifications: FLAG tag
notes: Cdt2 with I709, Y712, and F713 all mutated to alanine

Columns and labels:
U2OS cells = assay: Nuclear enlargement / re-replication in U2OS cells; assay type: cell-based, human; details: siCdt2 72 h
Protocol: Next, we examined Cdt1 degradation after the onset of the S phase in the Cdt2^PIP-3A-expressing cells. Cyclin A is present in the S and G2 phase, when Cdt1 should be degraded. Thus, Cdt1 should be present in cells that are negative for cyclin A, and absent in cells that are positive for cyclin A ([Nishitani et al, 2006]; [Xouri et al., 2007a], [2007b]). Cdt1 degradation after the onset of the S phase is carried out by two ubiquitin ligases, CRL1^Skp2 and CRL4^Cdt2. We depleted the substrate recognition subunits, Cdt2 and/or Skp2, by siRNA, and the percentage of Cdt1 positive cells among cyclin A–positive cells was assessed by immunofluorescence. In control siRNA-transfected U2OS cells, ∼2% of cyclin A–positive cells stained positive for Cdt1. […]
Figure 8. […] The frequency of Cdt1-positive (+) cells among cyclin A–positive (+) cells was calculated (n = 3). […] (D) Cells treated with siCdt2 or control siLuc were measured for their nuclear size (n = 200 for each), and are shown in a scatter plot. […]
Double-stranded RNAs were transfected at 100 nM using Oligofectamine (Invitrogen) or HiPerFect (QIAGEN). […] For Cdt1 silencing in Fig 1A and B, unsychronized HeLa cells were transfected twice with 200 nM of Cdt1 siRNA or control luciferase siRNA using Lipofectamine 2000 with a time interval of 24 h and were analysed 48 h after the second transfection. […]

DDB1, Cul4A = assay: Co-immunoprecipitation of DDB1 / Cul4A with FLAG-tagged Cdt2 constructs; assay type: cell-based, human; details: anti-FLAG IP, cross-linked cells
From the text: Before cell lysate preparation, cells were cross-linked.
Figure 3. […] HEK293 cells were transfected with plasmids expressing the indicated Cdt2 fused to a C-terminal FLAG tag, cross-linked, and precipitated with anti-FLAG antibodies (arrows). […] The bands in the blank lanes for Cul4A blotting correspond to the cross-reacting bands to pre-stained marker. […] HEK293 cells were transfected with the indicated plasmids and treated as in A. * indicates nonspecific bands derived from IgGs. (C) A schematic drawing of the Cdt2 domain structure highlighting the C-terminal PIP box and a sequence alignment of PIP boxes in various organisms. The alanine-changed PIP box mutant of Cdt2 was shown (PIP-3A) together with Cdt1 PIP box. (D) HEK293 cells were transfected with Cdt2^WT or PIP box mutant (Cdt2^PIP-3A) C-terminally fused to a FLAG tag, treated as in B, and Cdt2 was precipitated with anti-FLAG resin.
Control or Cdt2-FLAG expressing 293 cells that were UV irradiated (50 J/m^2), or not UV irradiated, or in the middle S phase (5 h after release from aphidicolon arrest) were fixed with 0.02% formaldehyde for 10 min, lysed using 0.1% Triton X-100-containing modified cytoskeleton (mCSK) buffer (10 mM Pipes, pH 7.9, 100 mM NaCl, 300 mM sucrose, 0.1% [vol/vol] Triton X-100, 1 mM phenylmethylsulfonyl fluoride, 10 mM β-glycerophosphate, 1 mMNa3VO4, 10 mM NaF), and then sonicated. After centrifugation (120,000g, Beckman Type 45Ti rotor, for 20 min at 4°C), the supernatants were mixed with anti-FLAG antibody-conjugated magnetic beads (M8823; Sigma-Aldrich) for 1 h at 4°C to obtain immunoprecipitates. The precipitate was washed with ice-cold 0.1% Triton X-100 containing mCSK buffer and subsequently suspended in SDS sample buffer.

Row | Molecule | enlarged nuclei (re-replication) phenotype (U2OS cells) | binding to DDB1 (and Cul4A) (DDB1, Cul4A)
1 | Cdt2: Cdt2 tagged with GFP, transiently expressed in MCF7 cells | rescued | –
2 | B1 | – | without significantly affecting interaction with Cul4A and DDB1
